Results from ChEMBL document CHEMBL1127757, “A non-steroidal diene acid inhibitor of human type 2 stereoid 5-reductase” (Bioorg Med Chem Lett, 1994).

Experiments:
[1] = target: T1, 3-oxo-5-alpha-steroid 4-dehydrogenase 1 (Homo sapiens, UniProt P18405); test: Apparent inhibition constant towards human Steroid 5-alpha-reductase type I; settings: read-out: Ki app
T1 sequence (P18405 whole entry): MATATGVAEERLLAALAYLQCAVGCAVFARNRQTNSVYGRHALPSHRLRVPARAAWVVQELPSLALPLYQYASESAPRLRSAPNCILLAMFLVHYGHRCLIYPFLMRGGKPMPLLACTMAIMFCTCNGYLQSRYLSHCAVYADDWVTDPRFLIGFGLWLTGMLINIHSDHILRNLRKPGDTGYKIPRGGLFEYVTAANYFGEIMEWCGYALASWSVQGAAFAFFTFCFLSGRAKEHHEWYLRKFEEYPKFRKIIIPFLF

[2] = target: T2, 3-oxo-5-alpha-steroid 4-dehydrogenase 2 (Homo sapiens, UniProt P31213); test: Apparent inhibition constant towards human Steroid 5-alpha-reductase type 2; settings: read-out: Ki app
T2 sequence (P31213 whole entry): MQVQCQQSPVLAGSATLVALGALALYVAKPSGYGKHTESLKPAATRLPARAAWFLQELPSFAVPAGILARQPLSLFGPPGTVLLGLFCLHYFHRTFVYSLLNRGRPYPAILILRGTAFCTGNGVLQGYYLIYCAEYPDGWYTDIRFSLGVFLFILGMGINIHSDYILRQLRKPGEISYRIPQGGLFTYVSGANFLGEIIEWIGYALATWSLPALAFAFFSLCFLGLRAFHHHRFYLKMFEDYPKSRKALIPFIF

[3] = target: T3, 3-oxo-5-alpha-steroid 4-dehydrogenase 2 (Homo sapiens) (UniProt P31213); test: Percent inhibition towards human Steroid 5-alpha-reductase type 2 at 2.5 uM concentration
T3 sequence (whole entry): T2 sequence (P31213 whole entry)

[4] = target: T1, 3-oxo-5-alpha-steroid 4-dehydrogenase 1; test: Apparent inhibition constant towards human Steroid 5-alpha-reductase type I; […]

SMILES	Ki [1] [nM]	Ki [2] [nM]	inhibition [3] [%]	Ki app [4]
CC(C)N(C(=O)[C@H]1CCC2C3CC=C4C=C(P(O)O)CC[C@]4(C)C3CC[C@@]21C)C(C)C (some centres undefined)	4900	0.8		
CC(C)(C)NC(=O)[C@H]1CC[C@H]2[C@@H]3CC[C@H]4NC(=O)C=C[C@]4(C)[C@H]3CC[C@]12C [FINASTERIDE]	100	2		
CC(C)(C)NC(=O)[C@H]1CC[C@H]2[C@@H]3CC=C4C=C(C(=O)O)CC[C@]4(C)[C@H]3CC[C@]12C [EPRISTERIDE]	410	0.2		
COc1cccc2c1CC=C1C=C(P(O)O)CCC12C (centres undefined)	1900	1600		
CC12CCC(P(O)O)=CC1=CCc1cc(Cl)ccc12 (centres undefined)	1900	1600		

Second part, the molecule after the results:

Ki [1] [nM]	Ki [2] [nM]	inhibition [3] [%]	Ki app [4]	SMILES
20	> 5000			CN1C(=O)CCC2(C)c3ccc(Cl)cc3CCC12 (centres undefined)
1900	1600			COc1cccc2c1CC=C1C=C(C(=O)O)CCC12C (centres undefined)
	> 2500	30	No inhibition	COc1ccc2c(c1)CC=C1C=C(C(=O)O)CCC12C (centres undefined)
1200	260			CC12CCC(C(=O)O)=CC1=CCc1cc(Cl)ccc12 (centres undefined)
